This test relates to CD2F1 mice, L1210 leukemia ip, survival T/C. Description: NCI In Vivo Anticancer Drug Screen. Data for tumor model L1210 Leukemia (intraperitoneal) in CD2F1 (CDF1) mice. Conditions: higher = longer survival. Summed up: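 Implant tumor; dose compound or vehicle; measure endpoint in both groups; report treated divided by control.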
[1] abbreviates: endpoint: mean survival time, dose: 100.0 mg/kg/injection, schedule: Q01DX009 (ip), vehicle: saline with Tween-80.
Where [2] appears, read: endpoint: mean survival time, dose: 200.0 mg/kg/injection, schedule: Q01DX009 (ip), vehicle: saline with Tween-80.
[3] abbreviates: endpoint: mean survival time, dose: 100.0 mg/kg/injection, schedule: Q04DX002 (ip), vehicle: saline with Tween-80.
Where [4] appears, read: endpoint: mean survival time, dose: 200.0 mg/kg/injection, schedule: Q04DX002 (ip), vehicle: saline with Tween-80.
Where [5] appears, read: endpoint: mean survival time, dose: 50.0 mg/kg/injection, schedule: Q01DX009 (ip), vehicle: saline with Tween-80.
[6] abbreviates: endpoint: mean survival time, dose: 100.0 mg/kg/injection, schedule: Q04DX003 (ip), vehicle: saline with Tween-80.
Where [7] appears, read: endpoint: mean survival time, dose: 200.0 mg/kg/injection, schedule: Q04DX003 (ip), vehicle: saline with Tween-80.
Setting [8] is: endpoint: mean survival time, dose: 400.0 mg/kg/injection, schedule: Q04DX003 (ip), vehicle: saline with Tween-80.

The structures appear in SMILES notation. Values joined by “and” are separate entries in the source; they are usually repeats but may differ in a detail not shown here. Identical values can stand only once. Inconclusive results and toxic doses are left out.

For `O=S(=O)(O)O.[NH-]C1CCCCCC1[NH-].[Pt+2]` (stereo not given), the T/C runs as follows: (endpoint: mean survival time, dose: 1.56 mg/kg/injection, schedule: Q04DX003 (ip), vehicle: dextrose) 205 % of control; (endpoint: mean survival time, dose: 3.13 mg/kg/injection, schedule: Q01DX001 (ip), vehicle: dextrose) 200 % of control and 204 % of control; (endpoint: mean survival time, dose: 3.13 mg/kg/injection, schedule: Q04DX003 (ip), vehicle: dextrose) 188 % of control and 241 % of control and 103 % of control; (endpoint: mean survival time, dose: 6.25 mg/kg/injection, schedule: Q01DX001 (ip), vehicle: dextrose) 170 % of control and 189 % of control; (endpoint: mean survival time, dose: 12.5 mg/kg/injection, schedule: Q01DX001 (ip), vehicle: dextrose) 86 % of control; (endpoint: mean survival time, dose: 12.5 mg/kg/injection, schedule: Q04DX003 (ip), vehicle: dextrose) 97 % of control.

As to `COC(=O)C[N+]1(C)C2CCC1CC(Cl)C2` (stereo not given), the T/C reads like this: (endpoint: mean survival time, dose: 12.5 mg/kg/injection, schedule: Q01DX001 (ip), vehicle: saline) 109 % of control; (endpoint: mean survival time, dose: 25.0 mg/kg/injection, schedule: Q01DX001 (ip), vehicle: saline) 113 % of control.

For the compound `NC(=O)N/N=C1\CC2C=CCC12` (stereo not given), the T/C was 95 % of control under setting [1] and 98 % of control under setting [2].

For the compound `O=[N+]([O-])c1ccccc1-c1n[nH]c2ccccc12`, the T/C was 113 % of control (endpoint: mean survival time, dose: 25.0 mg/kg/injection, schedule: Q04DX002 (ip), vehicle: saline with Tween-80); 106 % of control (endpoint: mean survival time, dose: 50.0 mg/kg/injection, schedule: Q04DX002 (ip), vehicle: saline with Tween-80); 106 % of control under setting [3]; 110 % of control under setting [4].

In the case of `CCCN(CCC)CCCCCCO`, the T/C was 98 % of control under setting [5], 98 % of control under setting [1] and 97 % of control under setting [2].

As to `O=C(O)C(Br)C(Br)C(=O)O` (stereo not given), the T/C was 98 % of control (endpoint: mean survival time, dose: 50.0 mg/kg/injection, schedule: Q01DX001 (ip), vehicle: carboxymethylcellulose (CMC)); 93 % of control (endpoint: mean survival time, dose: 100.0 mg/kg/injection, schedule: Q01DX001 (ip), vehicle: carboxymethylcellulose (CMC)); 95 % of control (endpoint: mean survival time, dose: 200.0 mg/kg/injection, schedule: Q01DX001 (ip), vehicle: carboxymethylcellulose (CMC)).

For the compound `Cc1ccc(S(=O)(=O)Oc2ccc(Br)cc2)cc1`, the T/C runs as follows: under setting [3], 96 % of control; under setting [4], 86 % of control.

Consider `Cc1c2ccccc2cc2c1ccc1cccc(F)c12`, for which the T/C was 100 % of control (endpoint: median survival time, dose: 12.5 mg/kg/injection, schedule: Q04DX003 (ip), vehicle: saline with Tween-80); 100 % of control (endpoint: median survival time, dose: 25.0 mg/kg/injection, schedule: Q04DX003 (ip), vehicle: saline with Tween-80); 100 % of control (endpoint: median survival time, dose: 50.0 mg/kg/injection, schedule: Q04DX003 (ip), vehicle: saline with Tween-80).

As to `COc1cc(C(=O)NC(=S)Nc2ccc3ccccc3c2)cc(OC)c1OC`, the T/C by setting is: under setting [1], 90 % of control; under setting [2], 94 % of control.

As for `COc1ccccc1NC(=O)NCCN(C)c1ccccc1`, the T/C under setting [3] is 88 % of control and the T/C under setting [4] was 88 % of control.

Turning to `COC(=O)/C=C(\C)C(=O)OC`, the T/C was 100 % of control under setting [1]; 94 % of control under setting [2]; 96 % of control (endpoint: mean survival time, dose: 400.0 mg/kg/injection, schedule: Q01DX009 (ip), vehicle: saline with Tween-80).

With `O=S(=O)(C(Br)CBr)C(Br)CBr` (stereo not given), under setting [6], the T/C was 95 % of control.

Regarding `CCCCS(=O)C(Cl)CCC` (stereo not given), the T/C by setting is: under setting [6], 97 % of control; under setting [7], 100 % of control.

`COc1cc(Cl)ccc1C`: the T/C was 97 % of control (endpoint: mean survival time, dose: 12.5 mg/kg/injection, schedule: Q01DX009 (ip), vehicle: saline with Tween-80); 97 % of control (endpoint: mean survival time, dose: 25.0 mg/kg/injection, schedule: Q01DX009 (ip), vehicle: saline with Tween-80); 95 % of control under setting [5]; 100 % of control under setting [1]; 91 % of control under setting [2].

For `Cc1ccc(S(=O)(=O)Nc2ccc(Cl)c(Cl)c2)cc1`, the T/C reads like this: (endpoint: mean survival time, dose: 100.0 mg/kg/injection, schedule: Q01DX001 (ip), vehicle: saline with Tween-80) 104 % of control; (endpoint: mean survival time, dose: 100.0 mg/kg/injection, schedule: Q01DX009 (ip), vehicle: Klucel (hydroxypropylcellulose) (HPC)) 105 % of control; (endpoint: mean survival time, dose: 200.0 mg/kg/injection, schedule: Q01DX001 (ip), vehicle: saline with Tween-80) 101 % of control; (endpoint: mean survival time, dose: 200.0 mg/kg/injection, schedule: Q01DX009 (ip), vehicle: Klucel (hydroxypropylcellulose) (HPC)) 95 % of control; (endpoint: mean survival time, dose: 400.0 mg/kg/injection, schedule: Q01DX001 (ip), vehicle: saline with Tween-80) 103 % of control.

Turning to `O=c1ccn(C2OC(CO)C3[O][Sn]([c]4ccccc4)([c]4ccccc4)[O]C32)c(=O)[nH]1` (stereo not given), the T/C (endpoint: mean survival time, dose: 1.56 mg/kg/injection, schedule: Q01DX005 (ip), vehicle: other) is 110 % of control; the T/C (endpoint: mean survival time, dose: 3.13 mg/kg/injection, schedule: Q01DX005 (ip), vehicle: other) is 107 % of control; the T/C (endpoint: mean survival time, dose: 6.25 mg/kg/injection, schedule: Q01DX005 (ip), vehicle: other) was 98 % of control; the T/C (endpoint: mean survival time, dose: 12.5 mg/kg/injection, schedule: Q01DX005 (ip), vehicle: other) was 102 % of control and 105 % of control.

For `Cc1ccc(N)cc1` (tested in a mixture with another compound), the T/C by setting is: (endpoint: mean survival time, dose: 12.5 mg/kg/injection, schedule: Q04DX003 (ip), vehicle: saline with Tween-80) 97 % of control; (endpoint: mean survival time, dose: 25.0 mg/kg/injection, schedule: Q04DX003 (ip), vehicle: saline with Tween-80) 101 % of control and 103 % of control; (endpoint: mean survival time, dose: 50.0 mg/kg/injection, schedule: Q04DX003 (ip), vehicle: saline with Tween-80) 107 % of control; under setting [6], 110 % of control and 103 % of control and 107 % of control; under setting [7], 105 % of control and 117 % of control; under setting [8], 102 % of control.

Take `O=c1c2ccccc2ncn1CCc1ccncc1`: the T/C is 104 % of control (endpoint: mean survival time, dose: 100.0 mg/kg/injection, schedule: Q01DX001 (ip), vehicle: saline); 101 % of control (endpoint: mean survival time, dose: 200.0 mg/kg/injection, schedule: Q01DX001 (ip), vehicle: saline); 103 % of control (endpoint: mean survival time, dose: 400.0 mg/kg/injection, schedule: Q01DX001 (ip), vehicle: saline).

With `O=C(O)c1cccc(C(=O)O)c1`, the T/C reads like this: under setting [6], 95 % of control; under setting [7], 102 % of control; under setting [8], 102 % of control.

As to `COc1ccc2nc3c(C)c4ccn(O)cc4c(C)c3c2c1`, the T/C was 106 % of control (endpoint: mean survival time, dose: 25.0 mg/kg/injection, schedule: Q04DX003 (ip), vehicle: water); 111 % of control (endpoint: mean survival time, dose: 50.0 mg/kg/injection, schedule: Q04DX003 (ip), vehicle: water); 114 % of control (endpoint: mean survival time, dose: 100.0 mg/kg/injection, schedule: Q04DX003 (ip), vehicle: water); 105 % of control (endpoint: mean survival time, dose: 178.0 mg/kg/injection, schedule: Q04DX003 (ip), vehicle: other); 103 % of control (endpoint: mean survival time, dose: 266.0 mg/kg/injection, schedule: Q04DX003 (ip), vehicle: other); 102 % of control (endpoint: mean survival time, dose: 400.0 mg/kg/injection, schedule: Q04DX003 (ip), vehicle: other). Under “endpoint: mean survival time, dose: 600.0 mg/kg/injection, schedule: Q04DX003 (ip), vehicle: other”, the T/C was 103 % of control.

For the compound `O=C(O)C(O)C(O)C(OC1OC(CO)C(O)C(O)C1O)C(O)CO.[Br][Pt].[NH-]C1CCCCC1[NH-]` (stereo not given), the T/C (endpoint: median survival time, dose: 6.25 mg/kg/injection, schedule: Q04DX003 (ip), vehicle: saline) is 158 % of control; the T/C (endpoint: median survival time, dose: 12.5 mg/kg/injection, schedule: Q04DX003 (ip), vehicle: saline) is 175 % of control; the T/C (endpoint: median survival time, dose: 25.0 mg/kg/injection, schedule: Q04DX003 (ip), vehicle: saline) was 163 % of control and 212 % of control; the T/C (endpoint: median survival time, dose: 50.0 mg/kg/injection, schedule: Q04DX003 (ip), vehicle: saline) is 178 % of control and 200 % of control.

Consider `O=C1C(Br)=C(c2ccccc2)C(=O)C(Br)=C1c1ccccc1`, for which the T/C by setting is: (endpoint: mean survival time, dose: 100.0 mg/kg/injection, schedule: Q04DX002 (ip), vehicle: Klucel (hydroxypropylcellulose) (HPC)) 90 % of control; (endpoint: mean survival time, dose: 200.0 mg/kg/injection, schedule: Q04DX002 (ip), vehicle: Klucel (hydroxypropylcellulose) (HPC)) 86 % of control; (endpoint: mean survival time, dose: 400.0 mg/kg/injection, schedule: Q04DX002 (ip), vehicle: Klucel (hydroxypropylcellulose) (HPC)) 90 % of control.

Values taken from PubChem BioAssay AID256 (DTP/NCI, 2004).
